In US4084006A, “Method of using dialkylphenols an antiviral agents” (priority 1977, dated 1978):

What was measured:
San Carlos virus = assay: Dimethylphenols against San Carlos virus in tissue culture (human embryonic lung), CPE; type: cell-based, San Carlos virus (adenovirus); settings: for CPE with TCID50 doses of San Carlos virus: human embryonic lung, 100 TCID50
[1] = test system: Herpes simplex virus (HF strain); assay: Inhibition of cytopathic activity (CPE) of herpes virus in HEL tissue culture; type: cell-based; settings: for CPE with 100 TCID50 doses of Herpes virus: HEL cells
Procedure: (§1) The anti-viral activity of 2,4-dimethylphenol was studied in the following manner. Tissue cultures derived from human embryonic lung (HEL) were grown and maintained as monolayers in 32 ounce prescription bottles using growth medium consisting of 85% synthetic mixture No. 199 plus 15% unfiltered fetal bovine serum (FBS) adjusted to pH 7.4. Tube cultures of HEL cells were prepared in similar fashion and used in assays for anti-viral activity. During chemotherapy tests, the maintenance medium consisted of synthetic mixture No. 199 with 7.5% FBS. The virus spectrum in tissue culture consisted of two DNA viruses, a San Carlos virus isolated by Davis [see Science 133, 2059, 1961] and later identified as an adenovirus, and the HF strain of herpes simplex virus. In addition, a RNA virus represented by measles was included in the examples.
(§2) In performing the initial assays, the tissue cultures were treated prophylactically and the virus was treated in vitro with decreasing 2,4-dimethylphenol concentrations ranging from […] (2 × 10^-6) to 2 attograms (ag) (2 × 10^-18) per ml. The procedure consisted of pretreating tube cultures of HEL cells for two to three days with growth medium containing varying concentrations of 2,4-dimethylphenol. After the prophylactic treatment, the test fluids were removed and replaced with fresh maintenance medium. At this time, 200 TCID50 doses of virus were mixed in vitro with the same decreasing concentrations of the distillate used to pretreat the cells, then the mixture was inoculated into replicate culture of HEL cells so that the final incolum consisted of 100 TCID50 doses of virus in tubes with 2,4-dimethylphenol at the same level used to prophylactically treat the cells.
(§3) The same number of infected control tubes were handled in the same way except that 2,4-dimethylphenol was omitted from all media. Culture tubes were rotated at 37° C. and examined daily for a period of 7 days for cytopathic activity (CPE). […] By the same token, the CPE of herpes virus was inhibited by both the 10^-12 and 10^-15 level, possibly indicating two active components. […]

[2] = test system: pneumonia virus of mice (PVM); assay: Serum PVM titers in rats; type: in vivo, pneumonia virus of mice (host: rat); settings: for Mycoplasma infected rats that failed to show titers for PVM: sera of 19 infected rats
From the text: (§4) Attempts were made to test the effect of infecting rats with Mycoplasma pulmonis (ATCC 19612) so that they could transmit the disease to their cage mates and, also allowed them to breed. This was also done to test if the mothers would pass the infection on to their litters. These rats were purchased from a laboratory in Indianapolis, Indiana and they were divided into 6 groups with male animals in each group. In the 5 experimental groups, a total of 15 female rats out of 30, and in the control group 4 female rats out of 8 were infected intranasally with Mycoplasma pulmonis (ATCC 19612). There were two male rats per experimental group and 3 for the controls totaling 13 male rats, and none of these were infected with M. pulmonis.
(§5) The experimental groups (8 rats each) and control group were treated as follows:
All rats were fed ad libitum rat chow, and their cages were cleaned 5-6 times weekly. For the 5 experimental groups, the 2,4 DMP was dissolved in distilled water used for their drinking fluid while the control only received distilled water. There were times when the rats spilled excessive amounts of their drinking water and this caused a certain amount of the phenol to be evaporated from these cages, particularly those groups receiving the higher concentrations of the phenol. This way, it was possible for the controls to inhale a small but indefinite amount of the phenol which is volatile. All animals were kept in the same laboratory room.
All the male animals (13) were sacrificed after 14 days, and after impregnating the females. Their blood was collected by heart puncture, and the animals lungs were saved in 10% formalin for pathology. All the female rats (18) that were not infected, except one, intranasally with M. pulmonis were sacrificed 30 days post infection of their cage mates. All the young born to these rats (non-infected), during this time were also sacrificed. The blood and lungs from the adult females were saved for study.
The 19 female rats infected with M. pulmonis and one non-infected female were allowed to raise their litters so that the young could be weaned, and then they were sacrificed 58 days post infection, saving their blood and lungs for study.
When the offsprings from the M. pulmonis infected mothers were 40-50 days old a proportionate number selected at random were sacrificed, saving blood and lungs for study:
The serum of each rat sacrificed was tested for antibodies for Mycoplasma. […] One of these rats was in the group receiving one part per million of the phenol and other was a control. Therefore, it was concluded that the Mycoplasma pulmonis was not the cause of the lung infection in these rats, but there was still enough pathology evident in these lungs to suspect some unknown infection. Consequently, the serum of the control rat showing a low titer for Mycoplasma pulmonis was screened by a commercial laboratory for virus infections commonly associated with rats.
All blood serums saved from these experiments were tested for PVM titers. Sera from eight of the 13 males sacrificed at 14 days had detectable titers. All three of these controls had titers indicating PVM infection leaving 5 treated rats with titers for PVM. In the 18 non-infected female rats that were sacrificed after 30 days two rats were negative for PVM titers, one was in the 1 PPM and the other was in the 1 PPB treated groups.

[3] = test system: Mycoplasma pulmonis (ATCC 19612); assay: Rats infected intranasally with Mycoplasma pulmonis: lung pathology and breeding; type: in vivo, Mycoplasma pulmonis (host: rat); settings: 1 PPB in drinking water 58 days; three M. pulmonis infected female rats
From the text: as §4, §5
All rats were fed ad libitum rat chow, and their cages were cleaned 5-6 times weekly. For the 5 experimental groups, the 2,4 DMP was dissolved in distilled water used for their drinking fluid while the control only received distilled water. There were times when the rats spilled excessive amounts of their drinking water and this caused a certain amount of the phenol to be evaporated from these cages, particularly those groups receiving the higher concentrations of the phenol. […]

Measles = assay: Inhibition of cytopathic activity (CPE) of measles virus in HEL tissue culture; type: cell-based; settings: for CPE with 100 TCID50 doses of Measles virus: HEL cells
Procedure: as §1, §2, §3

Cc1ccc(O)c(C)c1 [2,4-dimethylphenol]
CPE with TCID50 doses of San Carlos virus (San Carlos virus; 10^-6 grams 2X): 3+ (75% of cells infected with selected virus)
CPE with TCID50 doses of San Carlos virus (San Carlos virus; 10^-7 grams 2X): 2+ (50% of cells infected with selected virus)
CPE with TCID50 doses of San Carlos virus (San Carlos virus; 10^-8 grams 2X): ± (less than 10% infected)
CPE with TCID50 doses of San Carlos virus (San Carlos virus; 10^-9 grams 2X): ± (less than 10% infected)
CPE with TCID50 doses of San Carlos virus (San Carlos virus; 10^-10 grams 2X): ± (less than 10% infected)
CPE with TCID50 doses of San Carlos virus (San Carlos virus; 10^-11 grams 2X): 1+ (25% of cells infected with selected virus)
CPE with TCID50 doses of San Carlos virus (San Carlos virus; 10^-12 grams 2X): 1+ (25% of cells infected with selected virus)
CPE with TCID50 doses of San Carlos virus (San Carlos virus; 10^-13 grams 2X): 1+ (25% of cells infected with selected virus)
CPE with TCID50 doses of San Carlos virus (San Carlos virus; 10^-14 grams 2X): 2+ (50% of cells infected with selected virus)
CPE with TCID50 doses of San Carlos virus (San Carlos virus; 10^-15 grams 2X): 2+ (50% of cells infected with selected virus)
anti-viral activity against San Carlos virus (San Carlos virus; at various concentrations): exhibit anti-viral activity
CPE with 100 TCID50 doses of Herpes virus ([1]; 10^-6 grams 2X): 3+ (75% of cells infected with selected virus)
CPE with 100 TCID50 doses of Herpes virus ([1]; 10^-7 grams 2X): 3+ (75% of cells infected with selected virus)
CPE with 100 TCID50 doses of Herpes virus ([1]; 10^-8 grams 2X): 2+ (50% of cells infected with selected virus)
CPE with 100 TCID50 doses of Herpes virus ([1]; 10^-9 grams 2X): 2+ (50% of cells infected with selected virus)
CPE with 100 TCID50 doses of Herpes virus ([1]; 10^-10 grams 2X): 2+ (50% of cells infected with selected virus)
CPE with 100 TCID50 doses of Herpes virus ([1]; 10^-11 grams 2X): 2+ (50% of cells infected with selected virus)
CPE with 100 TCID50 doses of Herpes virus ([1]; 10^-12 grams 2X): 1+ (25% of cells infected with selected virus)
CPE with 100 TCID50 doses of Herpes virus ([1]; 10^-13 grams 2X): 2+ (50% of cells infected with selected virus)
CPE with 100 TCID50 doses of Herpes virus ([1]; 10^-14 grams 2X): 3+ (75% of cells infected with selected virus)
CPE with 100 TCID50 doses of Herpes virus ([1]; 10^-15 grams 2X): 1+ (25% of cells infected with selected virus)
CPE with 100 TCID50 doses of Herpes virus ([1]; 10^-16 grams 2X): 4+ (100% of cells infected with selected virus)
CPE with 100 TCID50 doses of Herpes virus ([1]; 10^-17 grams 2X): 4+ (100% of cells infected with selected virus)
CPE with 100 TCID50 doses of Herpes virus ([1]; 10^-18 grams 2X): 2+ (50% of cells infected with selected virus)
CPE of herpes virus ([1]; both the 10^-12 and 10^-15 level): inhibited
non-infected female rats negative for PVM titers ([2]; 1 PPM, sacrificed after 30 days, all controls positive): one
offspring with detectable titers for PVM ([2]; 47 offsprings tested, treated groups and controls exposed to vapors): not one
effect on PVM ([2]; 51 rats purchased, drinking water): appeared to have had an effect on this virus so as to depress its passage to other animals
Mycoplasma infected rats that failed to show titers for PVM ([2]; 100 parts per billion): two
treated male rats with titers for PVM ([2]; males sacrificed at 14 days, all treated groups, all three controls positive): 5
Mycoplasma infected rats that failed to show titers for PVM ([2]; one part per million): two
lung infection compared with the other four groups and the controls [3]: for all practical purposes, clear of infection
CPE with 100 TCID50 doses of Measles virus (Measles; 10^-6 grams 2X): 3+ (75% of cells infected with selected virus)
CPE with 100 TCID50 doses of Measles virus (Measles; 10^-7 grams 2X): 3+ (75% of cells infected with selected virus)
CPE with 100 TCID50 doses of Measles virus (Measles; 10^-8 grams 2X): 3+ (75% of cells infected with selected virus)
CPE with 100 TCID50 doses of Measles virus (Measles; 10^-9 grams 2X): 2+ (50% of cells infected with selected virus)
CPE with 100 TCID50 doses of Measles virus (Measles; 10^-10 grams 2X): 2+ (50% of cells infected with selected virus)
CPE with 100 TCID50 doses of Measles virus (Measles; 10^-11 grams 2X): 2+ (50% of cells infected with selected virus)
CPE with 100 TCID50 doses of Measles virus (Measles; 10^-12 grams 2X): 2+ (50% of cells infected with selected virus)
CPE with 100 TCID50 doses of Measles virus (Measles; 10^-13 grams 2X): 2+ (50% of cells infected with selected virus)
CPE with 100 TCID50 doses of Measles virus (Measles; 10^-14 grams 2X): 1+ (25% of cells infected with selected virus)
CPE with 100 TCID50 doses of Measles virus (Measles; 10^-15 grams 2X): 1+ (25% of cells infected with selected virus)
CPE with 100 TCID50 doses of Measles virus (Measles; 10^-16 grams 2X): ± (less than 10% infected)
CPE with 100 TCID50 doses of Measles virus (Measles; 10^-17 grams 2X): 1+ (25% of cells infected with selected virus)
CPE with 100 TCID50 doses of Measles virus (Measles; 10^-18 grams 2X): 0 (no cells infected)
Measles CPE (Measles; concentrations less than the 10^-14 level): appeared to be inhibited
